The target in assay [1] is Beta Secretase enzyme (BACE) (Homo sapiens (Human), UniProt P56817). Description: In vitro enzymatic BACE FRET assay. The settings on record: read-out: BACE 1 FRET assay IC50. The assay is classed as biochemical. In outline:
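Reactions ran in 0.05 M acetate pH 4.2 with 10% DMSO final and 100 uM genapol. They were started with 50 nM peptide FRET substrate (fluorophore and quencher flanking the BACE cleavage site) and incubated one hour. Tris addition raised the pH to neutral to stop the reaction before fluorescence reading.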

Assay [2] has as its system Aβ40 in conditioned medium of cells stably expressing Amyloid Precursor Protein (APP). Briefly: In vitro BACE cell-based assay (Aβ40 sandwich ELISA). The settings on record: Homo sapiens, read-out: HEK cell assay IC50. A digest of the protocol: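 Secreted Aβ40 was quantified by sandwich ELISA (pAb40 capture, biotinylated 6E10 detection, Europium time-resolved fluorescence). IC50 derived from percent inhibition versus concentration.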

The next assay has as its target Cathepsin D (Cat D) (Homo sapiens (Human), UniProt P07339). Description: In vitro enzymatic Cathepsin D (Cat D) FRET assay. The assay is classed as biochemical. The settings on record: read-out: CatD IC50. In outline: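 CHO-expressed recombinant Cat D cleaves a fluorophore/quencher FRET peptide (20 nM) in 0.05 M citrate pH 3.5, 5 mM CHAPS, 10% DMSO final, over 1 h. Tris addition neutralizes pH to stop the reaction; fluorescence read at excitation 500 nm, emission 580 nm.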

[3] abbreviates: average IC50, BACE enzyme assay.
Where [4] appears, read: HEK293, average IC50, HEK cell assay.
Setting [5] is: average IC50, cathepsin D enzyme assay.

Where two headings read alike, the source gives them in different places.

As usually defined, the IC50 is the concentration that inhibits the measured activity by half.

Chain of Cathepsin D (Cat D) (P07339 65-412, species assumed): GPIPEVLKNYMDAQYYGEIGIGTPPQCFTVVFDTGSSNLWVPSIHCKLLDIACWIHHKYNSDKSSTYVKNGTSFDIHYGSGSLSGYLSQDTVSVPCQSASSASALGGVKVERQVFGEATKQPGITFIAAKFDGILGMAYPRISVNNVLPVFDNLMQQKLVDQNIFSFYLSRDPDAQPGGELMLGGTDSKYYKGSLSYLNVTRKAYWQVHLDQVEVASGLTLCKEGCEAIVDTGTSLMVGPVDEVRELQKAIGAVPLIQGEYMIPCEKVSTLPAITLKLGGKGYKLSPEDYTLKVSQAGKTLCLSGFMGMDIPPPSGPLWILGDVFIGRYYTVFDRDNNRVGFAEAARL
Chain of Beta Secretase enzyme (BACE) (P56817 46-501): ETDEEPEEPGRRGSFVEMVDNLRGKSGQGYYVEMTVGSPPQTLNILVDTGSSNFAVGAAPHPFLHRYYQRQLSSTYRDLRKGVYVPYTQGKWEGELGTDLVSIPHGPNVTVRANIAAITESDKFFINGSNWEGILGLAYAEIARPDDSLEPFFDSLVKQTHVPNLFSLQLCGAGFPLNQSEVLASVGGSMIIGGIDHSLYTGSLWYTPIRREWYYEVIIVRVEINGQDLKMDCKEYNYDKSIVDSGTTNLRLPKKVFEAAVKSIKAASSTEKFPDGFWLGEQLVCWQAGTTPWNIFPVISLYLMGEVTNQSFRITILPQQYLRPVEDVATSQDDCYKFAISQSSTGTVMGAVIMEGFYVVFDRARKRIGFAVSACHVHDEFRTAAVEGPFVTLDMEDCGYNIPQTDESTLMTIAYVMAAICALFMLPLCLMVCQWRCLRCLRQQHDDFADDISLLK

Regarding `C[C@@]1(c2cc(NC(=O)c3ccc(Br)cn3)cc(F)c2F)C[C@@H](C(F)(F)F)OC(N)=N1` [Example 175, N-(3-((4S,6S)-2-amino-4-methyl-6-(trifluoromethyl)-5,6-dihydro-4H-1,3-oxazin-4-yl)-4,5-difluorophenyl)-5-bromopicolinamide], the IC50 was determined as 22 nM in assay [1] (average); 6.6 nM in assay [2] (HEK293, HEK cells, average); 424 µM at Cathepsin D (Cat D) (average).
With `C[C@@]1(c2cc(Nc3nccc4cc(Cl)cnc34)cc(F)c2F)C[C@@H](C(F)(F)F)OC(N)=N1` [Example 176, (4S,6S)-4-(5-((3-chloro-1,7-naphthyridin-8-yl)amino)-2,3-difluorophenyl)-4-methyl-6-(trifluoromethyl)-5,6-dihydro-4H-1,3-oxazin-2-amine], the results for the IC50 (in assay [1] (setting [3]); in assay [2] (setting [4]); at Cathepsin D (Cat D) (setting [5])) were 21 nM, 102 nM and 104 µM, respectively.
In the same order, the values of `C[C@@]1(c2cc(Nc3ncc(F)c4cc(C#N)cnc34)cc(F)c2F)C[C@@H](C(F)(F)F)OC(N)=N1` [Example 177, 8-((3-((4S,6S)-2-amino-4-methyl-6-(trifluoromethyl)-5,6-dihydro-4H-1,3-oxazin-4-yl)-4,5-difluorophenyl)amino)-5-fluoro-1,7-naphthyridine-3-carbonitrile] are 30 nM, 275 nM and greater than 4.94 µM.
The corresponding values for `C[C@@]1(c2cc(Nc3nccc4cc(C#N)cnc34)cc(F)c2F)C[C@@H](C(F)(F)F)OC(N)=N1` [Example 180, 8-((3-((4S,6S)-2-amino-4-methyl-6-(trifluoromethyl)-5,6-dihydro-4H-1,3-oxazin-4-yl)-4,5-difluorophenyl)amino)-1,7-naphthyridine-3-carbonitrile] are 14 nM, 36 nM and greater than 400 µM.
In the same order, the values of `NC1=N[C@](CF)(c2cc(C(=O)NC3CC3)ccc2F)C[C@@H](C(F)(F)F)O1` [Example 182, 3-((4S,6S)-2-amino-4-(fluoromethyl)-6-(trifluoromethyl)-5,6-dihydro-4H-1,3-oxazin-4-yl)-N-cyclopropyl-4-fluorobenzamide] are 11400 nM, greater than 15600 nM and 3490 µM.
`C[C@@]1(c2cc(NC(=O)c3cnc(OCC(F)(F)F)cn3)cc(F)c2F)C[C@@H](C(F)(F)F)OC(N)=N1` [Example 186, N-(3-((4S,6S)-2-amino-4-methyl-6-(trifluoromethyl)-5,6-dihydro-4H-1,3-oxazin-4-yl)-4,5-difluorophenyl)-5-(2,2,2-trifluoroethoxy)pyrazine-2-carboxamide]: the IC50 in assay [1] (average) was 21 nM; in assay [2] (HEK293, HEK cells, average), 15 nM; at Cathepsin D (Cat D) (average), greater than 400 µM.
The corresponding values for `C[C@@]1(c2cc(NC(=O)c3ncc(C(F)(F)F)cc3Cl)cc(F)c2F)C[C@@H](C(F)(F)F)OC(N)=N1` [Example 187, N-(3-((4S,6S)-2-amino-4-methyl-6-(trifluoromethyl)-5,6-dihydro-4H-1,3-oxazin-4-yl)-4,5-difluorophenyl)-3-chloro-5-(trifluoromethyl)picolinamide] are 75 nM, 15 nM and greater than 400 µM.
The corresponding values for `CC#CCOc1ccc(C(=O)Nc2cc(F)c(F)c([C@]3(C)C[C@@H](C(F)(F)F)OC(N)=N3)c2)nc1` [Example 189, N-(3-((4S,6S)-2-amino-4-methyl-6-(trifluoromethyl)-5,6-dihydro-4H-1,3-oxazin-4-yl)-4,5-difluorophenyl)-5-(but-2-yn-1-yloxy)picolinamide] are 3 nM, 3 nM and 784 µM.
